In assay [1] the test system is alpha-carbonic anhydrase (CA) esterase activity in mussel mantle edge. Kind of assay: Esterase (carbonic anhydrase) activity in mantle after ex-vivo incubation. Details: species or system Mytilus galloprovincialis. The settings on record: after exposure to CALCIIa 10 μM or ouabain 2 mM; 4-Nitrophenyl acetate substrate; n = 6. The procedure: (A) Esterase activity and (B) Acid phosphatase activity. Enzyme activity was quantified in protein extracts from the mantle of control or challenged samples that were incubated with the mussel CALCIIa peptide. Values represent the mean ± SEM (CA, n = 6 and TRAP, n = 10) performed in duplicate. Prism GraphPad v5 software was used to assess the significance of the differences between the groups using One-way Anova and Tukey’s multiple comparison test. […] C - control; P - peptide (10 μM); O - ouabain (2 mM), OP - ouabain (2 mM) and peptide (10 μM); PreOP - pre stimulation for 1 hour with the peptide and 4 hours incubation with OP.
The posterior mantle edge region of the Mediterranean mussel was collected and washed in culture medium. The composition of the culture medium was as described in[91] […] The culture medium was supplemented with heat inactivated 2% FBS (SIGMA-ALDRICH), 0.1% penicillin: streptomycin antibiotic mix (10.000 U:10 mg/ml, SIGMA-ALDRICH) and 250 μg/ml sterile filtered 1:100 amphotericin B solution (Sigma-Aldrich). The posterior mantle edge from mussels was collected into culture medium and cut into fragments of approximately 1–2 mm in length. […]
Esterase activity in the mussel posterior mantle edge (n = 6/experimental group) was quantified using a colorimetric assay that measures the conversion of the substrate 4-Nitrophenyl acetate to p-nitrophenolate[92]. […]

Assay [2] concerns mussel CALCRIa. The assay can be described thus: Calcium mobilization assay (apoaequorin bioluminescence), dose-response, HEK 293 cells expressing mussel CALCRIa. The assay is classed as cell-based, Mytilus galloprovincialis. As to conditions: calcium mobilization, HEK 293/apoaequorin, 1 μM to 0.01 nM. The source says: The complete sequence of the Mediterranean mussel CALCRIa was amplified using specific primers (Table 1) from cDNA of a tissue mixture (mantle, adductor muscle, gills, gonads) using a proofreading DNA polymerase (iProof BIORAD, Portugal) and cloned into the pGEMT-easy vector (PROMEGA, Spain). The Mediterranean mussel CALCRIIa transcript that was found in the mantle transcriptome was incomplete and lacked the N-terminus (by comparisons with the hard-shelled mussel homologue) and so the remaining sequence (from 1–393 bp) was deduced from the hard-shelled mussel homologue receptor and the receptor was synthesised and supplied by GENESCRIPT (USA). The complete transcripts for mussel CALCRIc, CALCRIIb and CALCRIIc were only found in the hard-shelled mussel mantle transcriptome and homologues were only found in the Mediterranean mussel genome as they were absent from the species mantle transcriptome and so they were also synthesised and supplied by GENESCRIPT (USA) using the hard-shelled mussel receptor sequences as template. The mussel CALCRIb transcript was incomplete and lacked both N and C-terminal regions and it was not possible to obtain the complete transcript either by searching both mussels mantle transcriptomes or the Mediterranean mussel genome and so it was not produced. All synthetized receptors were provided in the pUC57 cloning vector by the company and receptor codon usage was optimized to favour a high level of expression in mammalian cells.
Mammalian cell cultures and transfections followed the methodology described by[89],[90]. Mammalian HEK293 cells (ECACC, UK) were used and they were maintained in complete Dulbecco’s modified Eagle’s medium (DMEM, 4.5 g/l glucose, 110 mg/l sodium pyruvate and L-glutamine, SIGMA-ALDRICH, Spain) supplemented with 10% sterile foetal bovine serum (FBS), 0.1% penicillin: streptomycin antibiotic mix (10,000 U:10 mg/ml, Sigma) and 250 μg /ml sterile filtered 1:100 amphotericin B solution (SIGMA-ALDRICH) in a humid 5% CO2 incubator (HERAEUS, Portugal) at 37 °C. On the day prior to transfection, 2–3 × 10^5 HEK293 cells were seeded on 6 well plates (SARSTEDT, Portugal) and transfected with Fugene HD transfection reagent (2 DNA: 4 Fugene ratio, PROMEGA) following the manufacturer’s protocol. Seventy-two hours after transfection, 800 μg/ml of the antibiotic Geneticin (SIGMA-ALDRICH) was added to the medium to select and isolate stable receptor cell lines. Cell recovery was monitored daily and the medium was changed every two days until no cell death was observed. […]
HEK293 cells stably expressing five mussel receptors (CALCRIa, CALCRIc, CALCRIIa, CALCRIIb and CALCRIIc) were stimulated with the two mussel peptides and the vertebrate (human and salmon) calcitonins. Receptor activation was assessed in vitro by measuring two intracellular signalling pathways: a) production of cAMP and b) mobilization of calcium (Ca^2+). The cellular response was initially assessed using 10 μM of each peptide. […]
Stable cell lines expressing the mussel receptors were transiently co-transfected with the mitochondrial targeted apo-aequorin protein cloned in pcDNA3.1. Two days after transfection cells were washed, counted and resuspended in 1 ml of DMEM /F12 Ham (without phenol red)/0.1% BSA supplemented with 2 µM coelenterazine (SIGMA-ALDRICH). […] The injector system of the Biotek Synergy 4 microplate reader (USA) was used to inject 50 µl of the cell suspensions into wells containing 50 μl of the diluted peptide in DMEM / F12 Ham / 0.1% BSA. […]

Bridge positions count the residues as written; N and C are the ends.

As for “H-CTWGGGMSDEMCSTVDIDEIQRSFQVIHDRNSP-NH2 (disulfide 1-12 (inferred)) [CALCIIa, Mediterranean mussel calcitonin-like mature peptide, 33 aa, synthesized with disulphide bond and C-terminal amidation]”, the “CA esterase activity in mantle edge (in words)” value in assay [1] is “No change”. Further, the “Activation of mussel CALCRIa in dose-response analysis (in words)” value in assay [2] is “not activated”.

The values are drawn from PMC7200681, “The calcitonin-like system is an ancient regulatory system of biomineralization” (Scientific Reports, 2020).
